Measured values from paper PMC6158189, “A pharmacological probe identifies cystathionine β-synthase as a new negative regulator for ferroptosis” (Cell Death & Disease, 2018).
Values joined by “and” are separate entries in the source; they are usually repeats but may differ in a detail not shown here. Equal values may be shown once.

What was measured:
hCBS T146A = target: T1, hCBS T146A (Homo sapiens, UniProt P35520, T146A); assay: purified hCBS mutant enzyme assay; assay type: biochemical
T1 construct: hCBS-413 (a C-terminal truncated hCBS 1–413); GST (N); made in house; host or cells: E. coli BL21
Method: (§1) The IC50 values of CH004 for hCBS-413, hCBS-413 mutants, hCBS-FL, hCSE or hDDC were determined according to the standard assay conditions otherwise indicated.
Table S2. Inhibitory effects of CH004 on hCBS WT and mutants.

HepG2 cells = assay: total Hcys in HepG2 cells (ELISA); assay type: cell-based, human; conditions: 5 or 10 μM, 12 h
Method: Fig. 3 The effect of CH004 on the activity of endogenous hCBS in cells. a CH004 dose-dependently elevates the levels of Hcys in HepG2 and HEK293T cells. HepG2 cells or HEK293T cells were incubated with indicated CH004 or DMSO (control) for 12 h. The amount of total Hcys in cells was measured by ELISA using Axis® Homocysteine EIA kit (IBL, AX51301) (“Materials and Methods” section). […] HepG2 cells were treated with indicated DMSO, CH004 or HA for 8 h before the staining with AzMC probe. The amount of the H2S (blue) was quantified and is shown in (c). Bars, 50 μm. Control (CTR), DMSO group (100%). A representative fluorescence image from three independent experiments is shown. Means ± SDS (n = 3). d CH004 elevates Hcys in the peripheral blood of rats. The total Hcys of the blood samples collected from the anesthetized rats at the 75 min time point (Materials and Methods) were quantified by ELISA (see above). Means ± SDS (n = 6).
HepG2 or HEK293T cells were seeded in poly-D-Lys-coated 6-well plates at a density of ∼ 5 × 10^5 cells per well for one day, treated with DMSO or various concentrations of compounds for another 12 h before the collection by scraping or trypsinization. […]

[1] = system: HepG2, HEK293T, Huh7, H22, Panc-28, HCT116 and MDA-MB-231 cells; assay: cell proliferation, all tested cell lines; assay type: cell-based; conditions: 24 h; read-out: IC50 range, proliferation of all tested cells
Method: With a bioactive and selective inhibitor of CBS in hand, we examined the effect of CH004 on the proliferation of HepG2 and HEK293T cells as well as hepatocellular carcinoma Huh7 and H22, pancreatic cancer Panc-28, colon cancer HCT116 and breast cancer MDA-MB-231 cells. […] HCT116 was the most affected cell line with an IC50 of 4 μM amongst tested cell lines (Fig. 4a and Supplementary Figure 11). […] To confirm that CH004-mediated inhibitory effects are due to the specific inhibition of hCBS, we generated hCBS-overexpressed (293T-CBS WT) stable cell lines by transducing HEK293T cells with lentivirus carrying hCBS WT genes. […] In supporting the pros of CBS on the proliferation, knock-down of CBS indeed substantially retards cell proliferation in HEK293T cells (Supplementary Figure 12c, d). […] Importantly, CH004 could largely retard the colony formation of HepG2 cells with an IC50 of ~8 μM (Supplementary Figure 12e–g).
To measure cell viability and cytotoxicity, HepG2, HEK293T, Huh-7, H22, Panc-28, HCT116 and MDA-MB-231 cells were seeded at a density of ~ 2 × 10^4 cells per well in 96-well plates (Coring, NY, USA) for one day, followed by incubation with DMSO or various concentrations of tested compound for indicated times. […]

hCBS-FL = target: T2, hCBS-FL (Homo sapiens, UniProt P35520); assay: purified hCBS full-length enzyme assay; assay type: biochemical; parameters: human CBS or hCSE full-length (CBS-FL or CSE) was subcloned into pGEX-KG, pcDNA3 or pCDH vector; GST (N); made in house; host or cells: E. coli BL21; conditions: standard conditions
T2 sequence (P35520 1-551): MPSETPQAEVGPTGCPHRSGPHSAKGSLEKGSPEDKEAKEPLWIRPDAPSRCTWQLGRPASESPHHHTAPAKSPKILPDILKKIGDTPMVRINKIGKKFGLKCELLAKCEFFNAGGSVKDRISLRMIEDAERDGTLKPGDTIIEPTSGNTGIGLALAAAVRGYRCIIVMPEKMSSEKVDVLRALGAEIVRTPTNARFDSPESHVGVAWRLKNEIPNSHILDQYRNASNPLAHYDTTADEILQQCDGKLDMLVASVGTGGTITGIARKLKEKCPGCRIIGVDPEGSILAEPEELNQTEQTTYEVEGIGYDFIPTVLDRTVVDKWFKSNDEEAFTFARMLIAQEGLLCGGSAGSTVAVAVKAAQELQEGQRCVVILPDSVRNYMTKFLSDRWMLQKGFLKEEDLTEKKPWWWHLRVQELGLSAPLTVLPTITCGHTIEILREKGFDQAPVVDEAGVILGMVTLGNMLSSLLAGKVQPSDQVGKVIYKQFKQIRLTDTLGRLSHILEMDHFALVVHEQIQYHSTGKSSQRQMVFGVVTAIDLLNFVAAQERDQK
Method: as §1
^2The IC50 were determined for hCBS-FL.

T1 sequence (P35520 1-413 T146A): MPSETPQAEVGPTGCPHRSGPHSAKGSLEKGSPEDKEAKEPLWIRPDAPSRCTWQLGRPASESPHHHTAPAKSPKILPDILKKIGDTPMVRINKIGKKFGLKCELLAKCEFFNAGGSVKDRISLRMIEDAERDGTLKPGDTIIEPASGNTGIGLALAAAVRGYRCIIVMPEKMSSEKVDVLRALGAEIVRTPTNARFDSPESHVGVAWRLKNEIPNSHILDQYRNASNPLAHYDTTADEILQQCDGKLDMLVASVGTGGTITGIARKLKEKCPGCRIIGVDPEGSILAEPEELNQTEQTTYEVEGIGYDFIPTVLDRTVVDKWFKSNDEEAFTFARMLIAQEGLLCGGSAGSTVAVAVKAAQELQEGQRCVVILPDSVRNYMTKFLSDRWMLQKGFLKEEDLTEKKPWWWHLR

## Cn1nc(Cc2ccccc2)nc2c(=O)n(C)c(=O)nc1-2 [CH004, 3-benzyl-1,6-dimethylpyrimido[5,4-e][1,2,4]triazine-5,7(1H,6H)-dione]
hCBS T146A
  IC50 fold to WT, T146A: 4.2
hCBS T146A; 2 µM CBS, 4 mM Hcys, 4 mM Cys, Tris-HCl pH 8.6
  IC50: 5000 ± 1500 nM
HepG2 cells
  increase of Hcys: ~ 2 fold
[1]
  IC50: 4000 to 25000 nM
hCBS-FL
  IC50: ~590 nM and 590 nM
